Reference: PMC3171603 (Bioorganic & medicinal chemistry letters, 2011)

Key:
HIV-1 NL4-3 = experiment: HIV-1 infectivity assay; assay type: cell-based; details: for anti-HIV activity: TZM-bl cells, statement in words
[1] = Cytotoxicity: growth inhibition of uninfected TZM-bl cells; assay type: cell-based; details: human

EC50 (HIV-1 NL4-3; Human immunodeficiency virus 1, NL43, TZM-bl) [µM] | Structure (SMILES) | anti-HIV activity (HIV-1 NL4-3) | CC50 [1] [µM]
– | Cc1cc(=O)oc2c3c(ccc12)SC(C)(C)[C@@H](OC(=O)[C@@]12CC[C@@](C)(C(=O)O1)C2(C)C)[C@H]3OC(=O)[C@@]12CC[C@@](C)(C(=O)O1)C2(C)C [Compound 8b] | remarkably reduced or even completely abolished | –
0.12 | CCc1cc(=O)c2ccc3c(c2o1)[C@@H](OC(=O)C12CCC(C)(C(=O)O1)C2(C)C)[C@@H](OC(=O)C12CCC(C)(C(=O)O1)C2(C)C)C(C)(C)O3 (some centres unmarked) [Compound 2-Ethyl-DCP, 2-ethyl-DCP, reference compound] | – | 14.3
– | Cc1cc(=O)oc2c3c(ccc12)SC(C)(C)[C@H](OC(=O)[C@@]12CC[C@@](C)(C(=O)O1)C2(C)C)[C@@H]3OC(=O)[C@@]12CC[C@@](C)(C(=O)O1)C2(C)C [Compound 8a, 4-Methyl-1′-thia-DCK] | – | > 30.6
– | CCc1cc(=O)c2ccc3c(c2o1)[C@H](OC(=O)C12CCC(C)(C(=O)O1)C2(C)C)[C@H](OC(=O)C12CCC(C)(C(=O)O1)C2(C)C)[C@@H](C)S3 (some centres unmarked) [Compound 6b] | remarkably reduced or even completely abolished | –
